Results published in ChEMBL document CHEMBL1134667, “Physicochemical determinants of passive membrane permeability: role of solute hydrogen-bonding potential and volume” (J Med Chem, 2001).

How the values were obtained:
[1] = Partition coefficient (logP) (heptane/glycol); conditions: heptane/ethylene glycol
[2] = Basolateral to apical effective permeability; conditions: not told
[3] = Apical to basolateral effective permeability; conditions: not told
[4] = Partition coefficient (logP); conditions: octanol/water
[5] = Partition coefficient (logP) (heptane); conditions: heptane/water

| logP [1] | Papp B→A [2] | Papp A→B [3] | logP [4] | logP [5] | SMILES |
| --- | --- | --- | --- | --- | --- |
| -5 | 20.6 ×10⁻⁶ cm/s | 21.9 ×10⁻⁶ cm/s | 0.48 | -3.73 | CC(=O)NCC(=O)NCCc1ccccc1 |
| -3.41 | 58.4 ×10⁻⁶ cm/s | 58.3 ×10⁻⁶ cm/s | 3.13 | -0.9 | CC(=O)N[C@H](CC1CCCCC1)C(=O)NCCc1ccccc1 |
| -3.77 |  |  | 1.59 | -2.64 | CC(=O)N[C@@H](C(=O)NCCc1ccccc1)C(C)C |
| -5.79 | 1.84 ×10⁻⁶ cm/s | 0.91 ×10⁻⁶ cm/s | 0.66 | -5.33 | CNC(=O)[C@@H](Cc1ccccc1)NC(=O)[C@H](NC(C)=O)C(C)C |
| -3.7 |  |  | 2.32 | -2 | CC(=O)N[C@H](Cc1ccccc1)C(=O)NCCc1ccccc1 |
